Legend:
[1] = biological target: T1, ArsRFlagN-6His protein (SEQ ID NO. 22) bound to Pars2Lbio/Pars2R DNA fragment (Escherichia coli, UniProt P37309); test: ELISA arsenic assay: ArsRFlagN-6His protein remaining bound to Pars2Lbio/Pars2R DNA fragment on streptavidin microplate, luminescence (CDP*); format: binding; conditions: 60 min 25° C.
T1 construct: made in house; host or cells: Escherichia coli C43(DE3) pLysS, vector pET28b(+)
T1 sequence (P37309 with tags, fused parts or gaps): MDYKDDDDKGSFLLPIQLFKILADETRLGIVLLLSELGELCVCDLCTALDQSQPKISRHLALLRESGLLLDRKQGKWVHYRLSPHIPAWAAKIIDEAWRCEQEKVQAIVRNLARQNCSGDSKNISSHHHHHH
Method: In this example, the used DNA fragment containing the binding site of the ArsRFlagN-6His protein (SEQ ID NO. 22) is composed of a fragment of 41 biotinylated bases in position 5′ (SEQ ID NO. 25, named “Pars2Lbio”) hybridized to a further DNA fragment with 33 bases (SEQ ID NO 26, named “Pars2R”). The sequences Pars2Lbio and Pars2R were obtained by chemical synthesis (Eurofins MWG Operon, Ebersberg, Germany).
The biotinylated oligonucleotide (“Pars2Lbio”) was used at a concentration of 1 to 10 nM. The complementary oligonucleotide (“Pars2R”) was added in excess to enhance formation of the double strand. It was diluted in PBST buffer (between 1 and 10 nM, ideally 5, for the biotinylated oligonucleotide; between 4 and 40 nM, ideally 20, for the complementary oligonucleotide). The mixture was heated for one minute at 65° C. to eliminate any secondary structures that could have been formed by each oligonucleotide.
A “NUNC Immobilizer (trademark) Streptavidin” microplate (Nunc Streptavidin Microplate, Dominique Dutscher (ref. 056212), Brumath, France) with 96 wells with a useful volume of 100 μl each and whose surface is functionalized with streptavidin, was used. The wells in the microplate were washed three times using of 300 μl of PBST solution.
The DNA solution was then distributed in the microplate wells (100 μl per well). The microplate was placed at 25° C. for one hour to enable binding of the DNA fragments thanks to the biotin-streptavidin affinity.
(§1) The unbound DNA was eliminated by three successive washes using 300 μl of PBST per well.
100 μl of PBSTLE solution were added in the microplate wells. The microplate was incubated for 60 minutes at 25° C. to enable non-specific binding of the milk proteins on the bottom and the walls of the well. This step limits non-specific binding of the ArsRFlagN-6His protein (SEQ ID NO. 22) and the conjugated anti-Flag antibodies (Ref. A9469, Sigma Aldrich, Saint-Quentin Fallavier, France). The unbound proteins were eliminated by three successive washes of the well using 300 μl of PBST buffer.
A solution of ArsRFlagN-6His protein (SEQ ID NO. 22) at 1 μg/ml was prepared in PBST buffer. 100 μl of this solution were added in each of the assay wells. The microplate was incubated for 60 minutes at 25° C., to enable the ArsRFlagN-6His proteins to bind with the DNA in the wells.
(§2) The unbound proteins were eliminated by three successive washes using 300 μl of PBST per well.
The DNA fragment defined in example 6 and containing the ArsR protein binding site was bound to a support in the same way as presented in example 6 above.
A solution containing the ArsRFlagN-6His protein (SEQ ID NO. 22) was added according to the protocol presented in example 7 above, to enable the protein to bind with the DNA.
5 dilutions of arsenic solution, at 0 μg/L, 2 μg/L, 3 μg/L, 4 μg/L, and 5 μg/L respectively, were prepared in PBS to provide a control sample range. 100 μl of each of these dilutions were added respectively in a microplate well.
The microplate was incubated for 60 minutes at 25° C., to enable the arsenic to bind with the ArsRFlagN-6His proteins (SEQ ID NO. 22).
The unbound ArsRFlagN-6His proteins (SEQ ID NO. 22) were eliminated by three successive washed using 300 μl of PBST per well.
100 μl of a solution of anti-Flag antibody (Ref. A9469, Sigma Aldrich, Saint-Quentin Fallavier, France), conjugated with alkaline phosphatase, were added in each wells. The antibody was previously diluted in PBST in compliance with the supplier's recommendations (dilution factor 1/500). The microplate was incubated for 60 minutes at 25° C. to enable the antibody to bind with the ArsRFlagN-6His proteins.
The unbound anti-Flag antibodies were eliminated by three successive washes using 300 μl of PBST per well.
A CDP* solution at 0.25 mM was prepared in buffer 1. 100 μl of CDP* solution were placed in the different assay wells. The light emitted was immediately measured using a luminometer (LumiStar, BMG Lab Technologies).

[2] = biological target: T2, ArsRFlagN protein (SEQ ID NO. 9) bound to Opars1 DNA fragment (Escherichia coli, UniProt P37309); test: ELISA arsenic assay: ArsRFlagN protein remaining bound to Opars1 DNA fragment on streptavidin microplate, luminescence (CDP*); format: binding, Escherichia coli K12 strain MG1655; conditions: 60 min 25° C.
T2 construct: made in house; host or cells: Escherichia coli M15[pREP4] with plasmid pQEarsRFlagN (pQE70)
T2 sequence (P37309 with tags, fused parts or gaps): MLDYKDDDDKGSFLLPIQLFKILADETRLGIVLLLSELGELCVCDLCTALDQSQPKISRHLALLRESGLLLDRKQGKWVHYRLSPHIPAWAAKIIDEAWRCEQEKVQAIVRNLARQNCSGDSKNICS
Method: Different dilutions of arsenic solution to be assayed are added (4), the arsenic binds to the ArsR protein (5) that is separated from its site. These proteins are eliminated by washing. Only the ArsR proteins that have not bound arsenic remain attached to the DNA (6).
A specific antibody of the Flag sequence is added (7). That antibody binds the Flag sequence of the ArsR protein bound to the DNA. The antibody is coupled with an enzyme, alkaline phosphatase for example. Any antibodies not bound are eliminated by washing.
A substrate of the enzyme is added in the wells. Light is emitted when the substrate is cleaved by the enzyme (8). […] The quantity of arsenic contained in the sample is obtained by comparing the results with a standard curve.
In this example, the used DNA fragment containing the binding site of the ArsR protein is composed of 254 base pairs (SEQ ID NO. 1, called “Opars1” herein). Opars1 sequence has been obtained by PCR (DNA polymerase chain reaction) amplification using the primers Opars1L (SEQ ID NO. 2) and Opars1R (SEQ ID NO. 3). The chromosomal DNA of the Escherichia coli K12 bacteria strain MG1655 (ATCC 47076) was used as a template for the PCR amplification. Biotin was added on the nucleotide at position 5′ during synthesis of the Opars1L primer. Biotinylated Opars1 sequences, that is to say sequences with a biotin in position 5′, were thus obtained.
A “NUNC Immobilizer (trademark) Streptavidin” microplate (Nunc Streptavidin Microplate, Dominique Dutscher (ref. 056212), Brumath, France) with 96 wells with a useful volume of 100 μl each and whose surface is functionalized with streptavidin, was used. The wells of this microplate were washed three times using 300 μl of PBST solution.
A solution containing Opars1 DNA fragments was diluted in PBS solution to obtain a DNA concentration of 0.2 μM. 100 μl of that solution were placed in each well of the “NUNC Immobilizer (trademark) Streptavidin” microplate. The microplate was incubated for 60 minutes at 25° C., to enable binding of the DNA in the wells.
as §1
The ArsR protein of sequence SEQ ID NO. 4 corresponds to the protein that regulates the Ars operon of Escherichia coli K12 strain MG1655. The arsR gene of sequence SEQ ID NO. 5 coding that protein was amplified from the chromosomal DNA of that strain using the primers arsRR (SEQ ID NO. 6) and arsRL (SEQ ID NO. 7), and cloned in expression vector pQE70 (Qiagen) according to the protocol described in the document “The QiaExpressionist: A handbook for high-level expression and purification of 6×His-tagged proteins. June 2003. Fifth ed., Qiagen” [12]. A Flag sequence (SEQ ID NO. 10) was inserted in the N-terminal region of the ArsR protein and named “ArsRFlagN” (SEQ ID NO. 9). The Flag sequence is recognized by anti-Flag antibodies (Ref. A9469, Sigma Aldrich, Saint-Quentin Fallavier, France). This addition will allow detecting and assaying the ArsR protein more efficiently.
The 200 μg of ArsRFlagN proteins produced were diluted to 1/100 in PBST buffer. 100 μl of that solution were added in each of the assay wells. The microplate was incubated for 60 minutes at 25° C., to enable the attachment of the ArsRFlagN proteins on the DNA in the wells. The amount of ArsRFlagN proteins added per well was estimated at about 0.4 μg.
as §2
A DNA fragment containing the ArsR protein binding site was attached to a support in the same way as that set out in example 2 above.
A solution containing the ArsR protein was added according to the protocol presented in example 3 above, to enable the protein to bind with the DNA.
6 dilutions of arsenic solution, at 0.375 μg/L, 0.750 μg/L, 1.875 μg/L, 7.500 μg/L, 18.750 μg/L and 37.500 μg/L respectively, were prepared in PBS to provide a standard range. […]

human = conditions: ingestion; cited from earlier work
[3] = Storage stability of purified ArsRFlagN-6His protein; format: physicochemical
Method: The ArsRFlagN-6His protein (SEQ ID NO. 22) was purified by affinity chromatography (IMAC). An Ni-NTA column was balanced with PBS buffer+10 mM of imidazole. The clear lysate was deposited on the column. The buffer was eluted by gravity. The column was firstly washed using PBS buffer+10 mM of imidazole (10 column volumes) and secondly using PBS buffer+20 mM of imidazole. The ArsR protein was eluted using an imidazole gradient in PBS buffer (PBS buffer with increasing concentrations of imidazole: 30 to 400 mM). The fractions collected were analysed (SDS-PAGE gel). Fractions that contained the greatest quantity of protein were stored at 4° C. (3 ml of PBS buffer, imidazole 300 mM, pH 7.5). ArsR protein concentration was of 1 mg/ml. The protein is stable for 15 days at 4° C. It can be stored for several weeks at lower temperatures (−20 and −80° C.) in the presence of a cryoprotector (glycerol at 50%, volume/volume).

arsenite [AsIII]
Luminescence value (L) ([1]; AsIII 0.027 μM (2 μg/L)): 4,710 | logL ([1]; AsIII 0.027 μM (2 μg/L)): 3.6730 | Luminescence value (L) ([1]; AsIII 0.040 μM (3 μg/L)): 4,457 | logL ([1]; AsIII 0.040 μM (3 μg/L)): 3.6490 | Luminescence value (L) ([1]; AsIII 0.053 μM (4 μg/L)): 4,061 | logL ([1]; AsIII 0.053 μM (4 μg/L)): 3.6086 | Luminescence value (L) ([1]; AsIII 0.067 μM (5 μg/L)): 3,906 | logL ([1]; AsIII 0.067 μM (5 μg/L)): 3.5917 | Luminescence value (L) ([2]; AsIII 0.005 μM (0.375 μg/L)): 6,426 | logL ([2]; AsIII 0.005 μM (0.375 μg/L)): 3.81 | Luminescence value (L) ([2]; AsIII 0.01 μM (0.750 μg/L)): 5,808 | logL ([2]; AsIII 0.01 μM (0.750 μg/L)): 3.76 | Luminescence value (L) ([2]; AsIII 0.025 μM (1.875 μg/L)): 5,023 | logL ([2]; AsIII 0.025 μM (1.875 μg/L)): 3.70 | Luminescence value (L) ([2]; AsIII 0.100 μM (7.500 μg/L)): 4,422 | logL ([2]; AsIII 0.100 μM (7.500 μg/L)): 3.65 | Luminescence value (L) ([2]; AsIII 0.250 μM (18.750 μg/L)): 3,776 | logL ([2]; AsIII 0.250 μM (18.750 μg/L)): 3.58 | Luminescence value (L) ([2]; AsIII 0.500 μM (37.500 μg/L)): 2,831 | logL ([2]; AsIII 0.500 μM (37.500 μg/L)): 3.45

[AsH3] [arsenic]
amount of arsenic ingested causing acute intoxication (human): 1 to 2 mg/kg/day

B1: ArsRFlagN-6His protein: recombinant E. coli ArsR regulator protein with N-terminal Flag peptide and polyhistidine tail (protein)
chain: MDYKDDDDKGSFLLPIQLFKILADETRLGIVLLLSELGELCVCDLCTALDQSQPKISRHLALLRESGLLLDRKQGKWVHYRLSPHIPAWAAKIIDEAWRCEQEKVQAIVRNLARQNCSGDSKNISSHHHHHH
modifications: ArsRFlagN-6His protein
notes: recombinant E. coli ArsR regulator protein with N-terminal Flag peptide and polyhistidine tail
time the protein is stable ([3]; 4° C., PBS buffer, imidazole 300 mM, pH 7.5, 1 mg/ml): 15 days | time the protein can be stored ([3]; −20 and −80° C., in the presence of glycerol at 50% (volume/volume)): several weeks
